Measured values: patent US12521399B2, “Compound as voltage-gated sodium channel inhibitor” (Guangzhou Fermion Technology Co., Ltd., priority 2022, dated 2026)

Columns and labels:
[1] = biological target: T1, human Nav1.8 ion channel stably expressed by CHO cells (Homo sapiens, UniProt Q9Y5Y9); assay: Blocking activity on sodium ion channel 1.8 (Nav1.8), manual whole-cell patch clamp; format: cell-based; settings: Nav1.8 peak sodium current; for inhibition at 0.01 µM: 10 nM compound, read-out: Inhibition rate (%) @ 10 nM; for inhibition at 0.1 µM: 100 nM compound, read-out: Inhibition rate (%) @ 100 nM
T1 construct: expressed in transfected cells
T1 sequence (Q9Y5Y9 whole entry): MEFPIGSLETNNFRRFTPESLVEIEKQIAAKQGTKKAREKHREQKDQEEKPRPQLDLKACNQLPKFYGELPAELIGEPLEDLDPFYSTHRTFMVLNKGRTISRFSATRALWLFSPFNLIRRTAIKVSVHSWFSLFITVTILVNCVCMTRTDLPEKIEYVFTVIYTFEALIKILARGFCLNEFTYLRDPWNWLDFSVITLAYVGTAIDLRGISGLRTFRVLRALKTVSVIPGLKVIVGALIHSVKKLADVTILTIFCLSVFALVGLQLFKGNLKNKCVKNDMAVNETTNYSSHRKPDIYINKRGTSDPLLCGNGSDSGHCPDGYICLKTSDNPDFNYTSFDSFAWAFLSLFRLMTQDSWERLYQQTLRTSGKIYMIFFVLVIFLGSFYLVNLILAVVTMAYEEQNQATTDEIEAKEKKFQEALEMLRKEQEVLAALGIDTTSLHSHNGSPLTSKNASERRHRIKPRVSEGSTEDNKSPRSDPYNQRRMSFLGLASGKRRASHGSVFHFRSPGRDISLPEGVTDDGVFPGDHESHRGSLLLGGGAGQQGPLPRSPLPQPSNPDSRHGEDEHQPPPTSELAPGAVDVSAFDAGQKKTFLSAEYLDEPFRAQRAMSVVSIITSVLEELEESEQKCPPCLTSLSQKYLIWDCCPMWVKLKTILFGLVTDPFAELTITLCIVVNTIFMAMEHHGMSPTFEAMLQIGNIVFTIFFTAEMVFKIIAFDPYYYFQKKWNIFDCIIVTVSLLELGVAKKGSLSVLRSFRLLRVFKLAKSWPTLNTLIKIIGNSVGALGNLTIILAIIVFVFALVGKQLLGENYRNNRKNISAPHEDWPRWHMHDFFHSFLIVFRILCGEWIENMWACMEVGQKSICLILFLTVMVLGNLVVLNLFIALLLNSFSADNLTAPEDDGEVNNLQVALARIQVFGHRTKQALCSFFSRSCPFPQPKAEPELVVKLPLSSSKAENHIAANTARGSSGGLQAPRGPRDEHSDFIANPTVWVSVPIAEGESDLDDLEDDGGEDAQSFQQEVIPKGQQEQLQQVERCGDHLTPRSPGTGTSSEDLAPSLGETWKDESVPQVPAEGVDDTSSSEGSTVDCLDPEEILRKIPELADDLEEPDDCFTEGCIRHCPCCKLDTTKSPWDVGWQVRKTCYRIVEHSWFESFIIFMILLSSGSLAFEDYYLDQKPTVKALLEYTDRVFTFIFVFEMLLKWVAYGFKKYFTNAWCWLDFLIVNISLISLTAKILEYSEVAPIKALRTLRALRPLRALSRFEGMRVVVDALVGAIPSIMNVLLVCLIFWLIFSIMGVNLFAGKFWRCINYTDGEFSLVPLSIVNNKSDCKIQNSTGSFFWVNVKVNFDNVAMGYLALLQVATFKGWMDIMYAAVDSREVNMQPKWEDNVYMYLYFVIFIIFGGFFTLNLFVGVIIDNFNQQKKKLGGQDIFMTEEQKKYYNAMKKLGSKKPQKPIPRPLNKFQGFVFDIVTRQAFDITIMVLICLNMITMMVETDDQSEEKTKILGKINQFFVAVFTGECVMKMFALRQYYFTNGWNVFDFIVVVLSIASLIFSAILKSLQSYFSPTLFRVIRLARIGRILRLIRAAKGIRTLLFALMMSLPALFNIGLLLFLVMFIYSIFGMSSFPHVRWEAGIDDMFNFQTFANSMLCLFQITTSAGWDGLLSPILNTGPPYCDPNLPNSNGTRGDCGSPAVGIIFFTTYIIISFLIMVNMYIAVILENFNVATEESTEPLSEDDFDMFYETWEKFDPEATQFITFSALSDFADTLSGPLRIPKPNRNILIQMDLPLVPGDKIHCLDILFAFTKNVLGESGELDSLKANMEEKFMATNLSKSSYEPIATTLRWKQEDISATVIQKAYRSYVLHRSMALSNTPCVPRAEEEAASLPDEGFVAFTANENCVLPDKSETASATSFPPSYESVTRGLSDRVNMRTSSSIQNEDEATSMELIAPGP
Protocol: Test Example A: Blocking activity of the compound of the present invention on sodium ion channel 1.8 (Nav1.8)
Experimental objective: to determine the rate of inhibition of the compound on the human Nav1.8 ion channel stably expressed by CHO cells
The compound was dissolved using DMSO to prepare a stock solution. The stock solution was diluted with an extracellular fluid (140 mM NaCl, 3.5 mM KCl, 1 mM MgCl2, 2 mM CaCl2), 10 mM D-glucose, 10 mM HEPES, 1.25 mM NaH2PO4 2H2O, pH=7.4 (NaOH)) to particular concentrations to be used in manual patch clamp testing.
A capillary glass tube was stretched to form a recording electrode using a microelectrode puller. A microelectrode manipulator was operated under an inverted microscope to contact the recording electrode to the cells, and negative suction pressure was applied to form a GQ seal. Once the GQ seal was formed, rapid capacitance compensation was performed, and then the negative pressure was continued to break the cell membrane, forming a whole cell recording mode. Slow capacitance was compensated for, and the film capacitance and series resistance were recorded. No leakage compensation was applied. Once the Nav1.8 current recorded in the whole cell was stabilized, administration of the compound was started. The compound was allowed to act at the first concentration for 5 min (or until the electric current stabilized), and then the second concentration was tested. For each test compound, two concentrations were tested.
The voltage stimulation protocol for whole-cell patch clamp recording of Nav1.8 sodium current was as follows: once the whole cell seal was formed, the cellular voltage was clamped at −120 mV for 30 ms. The clamping voltage was depolarized to 0 mV for 50 ms, and then the voltage was restored to −50 mV (for the specific voltage, reference was made to the half inactivation voltage in IV testing) for 8 s. […] Data acquisition was repeated every 20 s. The effect of the compound on the peak value of the sodium current was observed. The experimental data was collected by an EPC-10 amplifier (HEKA) and was stored in PatchMaster (HEKA) software.

[2] = Pharmacokinetic evaluation by intravenous injection or gavage in rats; settings: Sprague-Dawley (SD), rat, in vivo
Protocol: Test Example B: Quantitative pharmacokinetic evaluation of the compound of the present invention administered by intravenous injection or gavage in rats.
The present inventors conducted pharmacokinetic evaluation of the compound of the present invention in rats.
The compound of the present invention was administered to the test animals as a solution of 5% DMSO+5% tween 80+90% physiological saline solution. The animals were fasted for 12 hours prior to the administration, but had free access to water. For the intravenous injection administration group, the administration dose was 1 mg/kg; for gavage administration, the administration dose was 10 mg/kg. Following administration, blood was intravenously collected from the animals (approximately 0.3 mL of blood) at the following time points: 0.083 h, 0.25 h, 0.5 h, 1.0 h, 2.0 h, 4.0 h, 8.0 h, and 24 h. The blood collection tubes previously had EDTA-K2 added thereto as an anticoagulant. Each blood sample was centrifuged at 6800 g at a low temperature for 6 minutes, and plasma was collected and stored at −80° C.
Sample preparation for LC-MS/MS assay: 20 μL of the plasma sample was subjected to protein precipitation using 400 μL of methanol containing 100 ng/mL of IS (tolbutamide). The mixture was vortexed for 1 minute and then centrifuged at 18000 g for 7 minutes. 400 μL of the supernatant was transferred to a 96-well plate. 2 μL of the supernatant were subjected to LC-MS/MS analysis.

Nav1.3 = Nav1.3 (Homo sapiens, UniProt Q9NY46); settings: read-out: TTX IC50 (nm); cited from earlier work
Chain of Nav1.3 (Q9NY46 whole entry, looked up): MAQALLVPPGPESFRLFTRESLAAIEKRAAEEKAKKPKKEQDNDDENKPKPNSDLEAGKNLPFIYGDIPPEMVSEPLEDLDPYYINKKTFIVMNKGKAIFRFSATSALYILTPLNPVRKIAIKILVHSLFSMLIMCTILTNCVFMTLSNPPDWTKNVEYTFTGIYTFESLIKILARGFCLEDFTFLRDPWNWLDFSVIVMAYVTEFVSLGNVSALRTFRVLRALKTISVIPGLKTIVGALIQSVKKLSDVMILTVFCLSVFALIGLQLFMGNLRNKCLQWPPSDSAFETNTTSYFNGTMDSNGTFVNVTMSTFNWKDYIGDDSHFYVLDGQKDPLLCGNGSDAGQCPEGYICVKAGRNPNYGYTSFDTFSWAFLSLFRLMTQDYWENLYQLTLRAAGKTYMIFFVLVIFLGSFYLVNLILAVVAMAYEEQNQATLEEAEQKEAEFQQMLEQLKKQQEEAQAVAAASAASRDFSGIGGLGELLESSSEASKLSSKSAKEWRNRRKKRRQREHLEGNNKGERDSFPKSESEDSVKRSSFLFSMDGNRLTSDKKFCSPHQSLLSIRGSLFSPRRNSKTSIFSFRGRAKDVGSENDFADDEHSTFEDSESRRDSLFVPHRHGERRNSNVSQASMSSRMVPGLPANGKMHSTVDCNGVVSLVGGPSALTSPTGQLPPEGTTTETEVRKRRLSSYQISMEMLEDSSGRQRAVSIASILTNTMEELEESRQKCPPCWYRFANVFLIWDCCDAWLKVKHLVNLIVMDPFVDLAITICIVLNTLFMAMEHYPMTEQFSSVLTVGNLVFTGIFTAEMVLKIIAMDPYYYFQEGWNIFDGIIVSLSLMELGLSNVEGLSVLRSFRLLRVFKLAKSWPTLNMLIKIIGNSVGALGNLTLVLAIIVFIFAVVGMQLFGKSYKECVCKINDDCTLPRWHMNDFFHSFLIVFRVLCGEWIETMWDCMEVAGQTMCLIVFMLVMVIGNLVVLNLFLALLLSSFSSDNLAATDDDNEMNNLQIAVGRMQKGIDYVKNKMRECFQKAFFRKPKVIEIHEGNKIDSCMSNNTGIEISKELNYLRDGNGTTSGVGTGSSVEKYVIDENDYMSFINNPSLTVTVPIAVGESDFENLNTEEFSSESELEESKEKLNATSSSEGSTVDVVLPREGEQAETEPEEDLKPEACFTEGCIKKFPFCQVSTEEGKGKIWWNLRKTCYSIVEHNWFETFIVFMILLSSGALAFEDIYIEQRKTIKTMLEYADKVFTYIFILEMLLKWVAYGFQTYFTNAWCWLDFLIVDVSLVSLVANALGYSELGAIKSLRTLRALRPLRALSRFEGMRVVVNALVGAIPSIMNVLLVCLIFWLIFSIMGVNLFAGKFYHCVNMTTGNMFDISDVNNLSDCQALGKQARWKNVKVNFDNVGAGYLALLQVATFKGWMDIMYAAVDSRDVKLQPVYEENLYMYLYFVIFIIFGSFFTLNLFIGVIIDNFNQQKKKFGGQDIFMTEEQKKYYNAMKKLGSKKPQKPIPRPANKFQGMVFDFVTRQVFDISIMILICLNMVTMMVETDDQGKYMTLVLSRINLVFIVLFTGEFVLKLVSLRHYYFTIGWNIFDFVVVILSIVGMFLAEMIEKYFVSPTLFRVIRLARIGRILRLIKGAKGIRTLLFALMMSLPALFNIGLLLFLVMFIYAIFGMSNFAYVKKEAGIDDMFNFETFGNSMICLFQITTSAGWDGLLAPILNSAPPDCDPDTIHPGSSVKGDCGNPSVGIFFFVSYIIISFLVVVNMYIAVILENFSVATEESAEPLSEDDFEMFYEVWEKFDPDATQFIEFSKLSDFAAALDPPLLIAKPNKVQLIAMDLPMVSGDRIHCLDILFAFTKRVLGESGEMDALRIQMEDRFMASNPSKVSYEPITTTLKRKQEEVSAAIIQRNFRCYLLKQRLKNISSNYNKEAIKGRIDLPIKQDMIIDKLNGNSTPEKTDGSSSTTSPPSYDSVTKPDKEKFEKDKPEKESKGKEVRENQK

Nav1.8 = Nav1.8 (Homo sapiens, UniProt Q9Y5Y9); settings: read-out: TTX IC50 (nm); cited from earlier work
Chain of Nav1.8 (Q9Y5Y9 whole entry, looked up): as the sequence (Q9Y5Y9 whole entry) above

SMILES	inhibition at 0.01 µM [1]	inhibition at 0.1 µM [1]	also measured
CNCCNS(=O)(=O)c1cc(NC(=O)c2cc(Cl)c(C(F)(F)F)cc2Oc2ccc(F)cc2C)ccn1 [Compound 1, 5-chloro-2-(4-fluoro-2-methylphenoxy)-N-(2-(N-(2-(methylamino)ethyl)sulfamoyl)pyridin-4-yl)-4-(trifluoromethyl)benzamide]	59.8%	91.3%	–
Cc1cc(F)ccc1Oc1cc(C(F)(F)F)c(Cl)cc1C(=O)Nc1ccnc(S(=O)(=O)N[C@@H]2CCNC2)c1 [Compound 2, (R)-5-chloro-2-(4-fluoro-2-methylphenoxy)-N-(2-(N-(pyrrolidin-3-yl)sulfamoyl)pyridin-4-yl)-4-(trifluoromethyl)benzamide]	84.5%	100%	–
Cc1cc(F)ccc1Oc1cc(C(F)(F)F)c(Cl)cc1C(=O)Nc1ccnc(S(=O)(=O)N[C@H]2CCNC2)c1 [Compound 3, (S)-5-chloro-2-(4-fluoro-2-methylphenoxy)-N-(2-(N-(pyrrolidin-3-yl)sulfamoyl)pyridin-4-yl)-4-(trifluoromethyl)benzamide]	92%	98.4%	–
Cc1cc(F)ccc1Oc1cc(C(F)(F)F)c(Cl)cc1C(=O)Nc1ccnc(S(=O)(=O)NC2CCNCC2)c1 [Compound 4, 5-chloro-2-(4-fluoro-2-methylphenoxy)-N-(2-(N-(piperidin-4-yl)sulfamoyl)pyridin-4-yl)-4-(trifluoromethyl)benzamide]	84.9%	96.1%	–
Cc1cc(F)ccc1Oc1cc(C(F)(F)F)c(Cl)cc1C(=O)Nc1ccnc(S(=O)(=O)NCC2CCNCC2)c1 [Compound 5, 5-chloro-2-(4-fluoro-2-methylphenoxy)-N-(2-(N-(piperidin-4-ylmethyl)sulfamoyl)pyridin-4-yl)-4-(trifluoromethyl)benzamide]	78.5%	96.8%	–
Cc1cc(F)ccc1Oc1cc(C(F)(F)F)c(Cl)cc1C(=O)Nc1ccnc(S(=O)(=O)NC[C@@H]2CCNC2)c1 [Compound 6, (R)-5-chloro-2-(4-fluoro-2-methylphenoxy)-N-(2-(N-(pyrrolidin-3-ylmethyl)sulfamoyl)pyridin-4-yl)-4-(trifluoromethyl)benzamide]	71.3%	98.1%	–
Cc1cc(F)ccc1Oc1cc(C(F)(F)F)c(Cl)cc1C(=O)Nc1ccnc(S(=O)(=O)NC[C@H]2CCNC2)c1 [Compound 7, (S)-5-chloro-2-(4-fluoro-2-methylphenoxy)-N-(2-(N-(pyrrolidin-3-ylmethyl)sulfamoyl)pyridin-4-yl)-4-(trifluoromethyl)benzamide]	91.5%	97.1%	–
CCN1CC[C@H](NS(=O)(=O)c2cc(NC(=O)c3cc(Cl)c(C(F)(F)F)cc3Oc3ccc(F)cc3C)ccn2)C1 [Compound 8]	68.6%	93%	–
CCCN1CC[C@H](NS(=O)(=O)c2cc(NC(=O)c3cc(Cl)c(C(F)(F)F)cc3Oc3ccc(F)cc3C)ccn2)C1 [Compound 9, (S)-5-chloro-2-(4-fluoro-2-methylphenoxy)-N-(2-(N-(1-propylpyrrolidin-3-yl)sulfonamido)pyridin-4-yl)-4-(trifluoromethyl)benzamide]	60.1%	95.2%	–
Cc1cc(F)ccc1Oc1cc(C(F)(F)F)c(Cl)cc1C(=O)Nc1ccnc(S(=O)(=O)N[C@H]2CCN(CCF)C2)c1 [Compound 10, (S)-5-chloro-2-(4-fluoro-2-methylphenoxy)-N-(2-(N-(1-(2-fluoroethyl)pyrrolidin-3-yl)sulfamoyl)pyridin-4-yl)-4-(trifluoromethyl)benzamide]	46.2%	83.4%	–
CCN1CC[C@@H](NS(=O)(=O)c2cc(NC(=O)c3cc(Cl)c(C(F)(F)F)cc3Oc3ccc(F)cc3C)ccn2)C1 [Compound 11]	80.5%	97.8%	–
CCCN1CC[C@@H](NS(=O)(=O)c2cc(NC(=O)c3cc(Cl)c(C(F)(F)F)cc3Oc3ccc(F)cc3C)ccn2)C1 [Compound 12, (R)-5-chloro-2-(4-fluoro-2-methylphenoxy)-N-(2-(N-(1-propylpyrrolidin-3-yl)sulfamoyl)pyridin-4-yl)-4-(trifluoromethyl)benzamide]	71.5%	97.9%	–
Cc1cc(F)ccc1Oc1cc(C(F)(F)F)c(Cl)cc1C(=O)Nc1ccnc(S(C)(=N)=O)c1 (stereo not drawn) [Compound 13, 5-chloro-2-(4-fluoro-2-methylphenoxy)-N-(2-(S-methyliminosulfonyl)pyridin-4-yl)-4-(trifluoromethyl)benzamide]	52.4%	97.2%	AUC(0-t) ([2]; iv, 1 mg/kg): 2240 ng·h/mL; Cmax ([2]; iv, 1 mg/kg): 496 ng/mL; Tmax ([2]; iv, 1 mg/kg): 0.08 h; Vd ([2]; iv, 1 mg/kg): 2.48 L/kg; clearance ([2]; iv, 1 mg/kg): 7.52 mL/min/kg; half-life ([2]; iv, 1 mg/kg): 3.88 h; AUC(0-t) ([2]; po, 10 mg/kg): 18600 ng·h/mL; Cmax ([2]; po, 10 mg/kg): 1840 ng/mL; Tmax ([2]; po, 10 mg/kg): 2.67 h; bioavailability ([2]; po, 10 mg/kg): 83.2%; half-life ([2]; po, 10 mg/kg): 3.85 h
[2H]C([2H])([2H])Oc1cc(OC(F)(F)F)ccc1Oc1cc(C(F)(F)F)c(Cl)cc1C(=O)Nc1ccnc(S(C)(=N)=O)c1 (stereo not drawn) [Compound 15, 5-chloro-2-(2-(methoxy-d3)-4-(trifluoromethoxy)phenoxy)-N-(2-(S-methyliminosulfonyl)pyridin-4-yl)-4-(trifluoromethyl)benzamide]	86.3%	99.3%	–
CS(=N)(=O)c1cc(NC(=O)c2cc(Cl)c(C(F)(F)F)cc2N2CCCC(F)(F)CC2)ccn1 (stereo not drawn) [Compound 17, 5-chloro-2-(4,4-difluoroazepan-1-yl)-N-(2-(S-methyliminosulfonyl)pyridin-4-yl)-4-(trifluoromethyl)benzamide]	71.9%	96.5%	–
Cc1cc(F)ccc1Oc1cc(C(F)(F)F)c(Cl)cc1C(=O)Nc1cnnc(S(C)(=N)=O)c1 (stereo not drawn) [Compound 20, 5-chloro-2-(4-fluoro-2-methylphenoxy)-N-(6-(S-methyliminosulfonyl) 76 yridazine-4-yl)-4-(trifluoromethyl)benzamide]	46.8%	86.5%	–
[2H]C([2H])([2H])Oc1cc(F)ccc1Oc1cc(C(F)(F)F)c(Cl)cc1C(=O)Nc1ccc(F)c(S(C)(=N)=O)c1 (stereo not drawn) [Compound 24, 5-chloro-2-(4-fluoro-2-(methoxy-d3)phenoxy)-N-(4-fluoro-3-(S-methyliminosulfonyl)phenyl)-4-(trifluoromethyl)benzamide]	83.9%	99%	–
[2H]C([2H])([2H])Oc1cc(OC(F)(F)F)ccc1Oc1cc(C(F)(F)F)c(Cl)cc1C(=O)Nc1ccc(F)c(S(C)(=N)=O)c1 (stereo not drawn) [Compound 25, 5-chloro-N-(4-fluoro-3-(S-methyliminosulfonyl)phenyl)-2-(2-(methoxy-d3)-4-(trifluoromethoxy)phenoxy)-4-(trifluoromethyl)benzamide]	82%	95.5%	–
CS(=N)(=O)c1cc(NC(=O)c2cc(Cl)c(C(F)(F)F)cc2N2CCCC(F)(F)CC2)ccc1F (stereo not drawn) [Compound 27, 5-chloro-2-(4,4-difluoroazepan-1-yl)-N-(4-fluoro-3-(S-methyliminosulfonyl)phenyl)-4-(trifluoromethyl)benzamide]	75.1%	96%	–
NC1=N[C@H](O)[C@H]2[C@H]3O[C@]4(O)O[C@@H]([C@@H](O)[C@@]2(N1)[C@@H]4O)[C@]3(O)CO [TTX, tetrodotoxin]	–	–	IC50 (Nav1.3): 0.004 µM; IC50 (Nav1.8): 31 µM
